Test results: patent publication US11427548B2 (Arvinas Operations, Inc., priority 2015, dated 2022)
Read-outs that look alike come from different tables or passages of the source. One block for each compound: values may come before it.

Target: T1, Androgen Receptor (Homo sapiens, UniProt P10275)
T1 construct: endogenous in cells; host or cells: VCaP cells
T1 sequence (P10275 1-920): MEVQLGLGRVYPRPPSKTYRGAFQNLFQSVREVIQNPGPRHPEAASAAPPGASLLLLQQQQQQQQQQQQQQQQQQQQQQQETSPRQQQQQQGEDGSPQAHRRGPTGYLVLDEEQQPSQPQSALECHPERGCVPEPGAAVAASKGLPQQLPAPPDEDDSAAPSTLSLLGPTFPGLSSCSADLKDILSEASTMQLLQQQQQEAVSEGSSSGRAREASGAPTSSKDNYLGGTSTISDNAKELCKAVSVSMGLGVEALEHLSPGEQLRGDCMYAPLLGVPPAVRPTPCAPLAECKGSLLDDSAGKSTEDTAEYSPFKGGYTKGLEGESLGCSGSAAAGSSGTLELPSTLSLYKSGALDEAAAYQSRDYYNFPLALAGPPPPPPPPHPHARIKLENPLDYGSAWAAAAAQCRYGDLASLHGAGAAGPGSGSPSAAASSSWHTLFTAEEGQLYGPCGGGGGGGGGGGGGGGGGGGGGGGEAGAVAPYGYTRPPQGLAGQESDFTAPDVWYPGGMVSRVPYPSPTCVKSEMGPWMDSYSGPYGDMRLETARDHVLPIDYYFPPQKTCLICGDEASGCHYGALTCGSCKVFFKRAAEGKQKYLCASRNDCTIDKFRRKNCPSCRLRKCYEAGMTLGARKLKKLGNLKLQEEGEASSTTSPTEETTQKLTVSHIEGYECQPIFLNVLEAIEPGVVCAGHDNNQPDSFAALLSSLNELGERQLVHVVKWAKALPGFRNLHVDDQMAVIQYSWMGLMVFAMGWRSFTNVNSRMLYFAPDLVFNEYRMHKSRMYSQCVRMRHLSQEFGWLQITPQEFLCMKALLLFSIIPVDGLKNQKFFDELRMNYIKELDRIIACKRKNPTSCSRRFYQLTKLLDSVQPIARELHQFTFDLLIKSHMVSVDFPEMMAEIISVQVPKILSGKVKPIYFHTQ
Assay: Androgen Receptor ELISA assay (PathScan AR ELISA) in VCaP cells: AR degradation, Dmax and DC50
Format: cell-based
Outline: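 After 24 h exposure of VCaP cells (charcoal-stripped serum, 0.1 nM R1881 agonist, 0.1% DMSO) to seven half-log compound concentrations, residual AR in lysates was measured by PathScan ELISA (TMB absorbance, 450 nm). Cells were plated at 30,000/well and grown at least 3 days beforehand.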

[1] = VCaP cells; Table 35; read-out: VCaP DC50
[2] = VCaP, VCaP cells; Table 35; read-out: VCaP Dmax (%)
[3] = read-out: VCaP DC50; concentration that caused 50% Androgen Receptor degradation, VCaP cells (Table 32)
[4] = VCaP cells; Table 36; read-out: VCaP DC50
[5] = VCaP, VCaP cells; Table 36; read-out: VCaP Dmax (%)

SMILES: Cc1ncsc1-c1ccc([C@H](C)NC(=O)[C@@H]2C[C@@H](O)CN2C(=O)[C@@H](NC(=O)COCCC2CCN(c3ccc(C(=O)N[C@H]4C(C)(C)[C@H](Oc5ccc(C#N)c(Cl)c5)C4(C)C)cc3)CC2)C(C)(C)C)cc1 [Example 456]
DC50 [1]: < 50 nM | Dmax [2]: > 71%

SMILES: Cc1ncsc1-c1ccc(CNC(=O)[C@@H]2C[C@@H](O)CN2C(=O)[C@@H](NC(=O)COCCCCOc2ccc(-c3ccc(N4C(=S)N(c5ccc(C#N)c(C(F)(F)F)c5)C(=O)C4(C)C)cn3)cc2)C(C)(C)C)cc1 [Example 102, (2S,4R)-1-[(2S)-2-(2-{4-[4-(5-{3-[4-cyano-3-(trifluoromethyl)phenyl]-5,5-dimethyl-4-oxo-2-sulfanylideneimidazolidin-1-yl}pyridin-2-yl)phenoxy]butoxy}acetamido)-3,3-dimethylbutanoyl]-4-hydroxy-N-{[4-(4-methyl-1,3-thiazol-5-yl)phenyl]methyl}pyrrolidine-2-carboxamide]
Dmax (VCaP, read-out: VCaP Dmax (%)): > 71% | DC50 [3]: < 50 nM

SMILES: Cc1ncsc1-c1ccc(CNC(=O)[C@@H]2C[C@@H](O)CN2C(=O)[C@@H](NC(=O)COCC#CCOCCOc2ccc(N3C(=S)N(c4ccc(C#N)c(C(F)(F)F)c4)C(=O)C3(C)C)cc2)C(C)(C)C)cc1 [Example 319]
Dmax (VCaP, read-out: VCaP Dmax (%)): 26 to 50% | DC50 (read-out: VCaP DC50; VCaP cells; Table 34): < 50 nM

SMILES: Cc1ncsc1-c1ccc(CNC(=O)[C@@H]2C[C@@H](O)CN2C(=O)[C@@H](NC(=O)CO[C@@H](C)CCCCOc2ccc(C(=O)N[C@H]3C(C)(C)[C@H](Oc4ccc(C#N)c(Cl)c4)C3(C)C)cc2)C(C)(C)C)cc1 [Example 159, (2S,4R)-1-[(2S)-3,3-dimethyl-2-(2-{[(2S)-6-(4-{[trans-3-(3-chloro-4-cyanophenoxy)-2,2,4,4-tetramethylcyclobutyl]carbamoyl}phen-oxy)hexan-2-yl]oxy}acetamido)butanoyl]-4-hydroxy-N-{[4-(4-methyl-1,3-thiazol-5-yl)phenyl]methyl}pyrrolidine-2-carboxamide]
Dmax (VCaP, highest percentage of Androgen Receptor degradation observed, VCaP cells (Table 32); read-out: VCaP Dmax (%)): > 71% | DC50 (concentration that caused 50% Androgen Receptor degradation, VCaP cells (Table 32); read-out: VCaP DC50): < 50 nM

SMILES: Cc1ncsc1-c1ccc(CNC(=O)[C@@H]2C[C@@H](O)CN2C(=O)[C@@H](NC(=O)COc2ccc(Oc3cccc(-c4ccc(N5C(=S)N(c6ccc(C#N)c(C(F)(F)F)c6)C(=O)C5(C)C)cc4)c3)cc2)C(C)(C)C)cc1 [Example 127, (2S,4R)-1-[(2S)-2-(2-{4-[3-(4-{3-[4-cyano-3-(trifluoromethyl)phenyl]-5,5-dimethyl-4-oxo-2-sulfanylideneimidazolidin-1-yl}phenyl)phen-oxy]phenoxy}acetamido)-3,3-dimethylbutanoyl]-4-hydroxy-N-{[4-(4-methyl-1,3-thiazol-5-yl)phenyl]methyl}pyrrolidine-2-carboxamide]
Dmax (VCaP, read-out: VCaP Dmax (%)): > 71% | DC50 [3]: < 50 nM

SMILES: CC(C)(C)[C@H](NC(=O)COCCCOCCCCCOc1ccc(N2C(=S)N(c3ccc(C#N)c(C(F)(F)F)c3)C(=O)C2(C)C)cc1)C(=O)N1C[C@H](O)C[C@H]1C(=O)NCc1ccc(Cl)cc1 [Example 14, (2S,4R)-N-[(4-chlorophenyl)methyl]-1-[(2S)-2-[2-(3-{[5-(4-{3-[4-cyano-3-(trifluoromethyl)phenyl]-5,5-dimethyl-4-oxo-2-sulfanylideneimidazolidin-1-yl}phenoxy)pentyl]oxy}propoxy)acetamido]-3,3-dimethylbutanoyl]-4-hydroxypyrrolidine-2-carboxamide]
DC50 (read-out: VCaP DC50; concentration that caused 50% Androgen Receptor degradation, VCaP cells): > 501 nM

SMILES: Cc1ncsc1-c1ccc([C@H](C)NC(=O)[C@@H]2C[C@@H](O)CN2C(=O)[C@@H](NC(=O)CN2CCN(CCCN3CCN(c4ccc(C(=O)N[C@H]5C(C)(C)[C@H](Oc6ccc(C#N)c(Cl)c6)C5(C)C)cn4)CC3)CC2)C(C)(C)C)cc1 [Example 717, N-((1r,3r)-3-(3-chloro-4-cyanophenoxy)-2,2,4,4-tetramethylcyclobutyl)-6-(4-(3-(4-(2-(((S)-1-((2S,4R)-4-hydroxy-2-(((S)-1-(4-(4-methylthiazol-5-yl)phenyl)ethyl)carbam-oyl)pyrrolidin-1-yl)-3,3-dimethyl-1-oxobutan-2-yl)amino)-2-oxoethyl)piperazin-1-yl)propyl)piperazin-1-yl)nicotinamide]
DC50 [4]: < 50 nM | Dmax (VCaP, read-out: VCaP Dmax (%)): 51 to 70%

SMILES: Cc1ncsc1-c1ccc(CNC(=O)[C@@H]2C[C@@H](O)CN2C(=O)[C@@H](NC(=O)COCCCOCCCCOc2ccc(N3C(=S)N(c4cnc(C#N)c(C(F)(F)F)c4)C(=O)C3(C)C)cc2F)C(C)(C)C)cc1 [Example 48, (2S,4R)-1-[(2S)-2-(2-{3-[4-(4-{3-[6-cyano-5-(ttifluoromethyl)pyridin-3-yl]-5,5-dimethyl-4-oxo-2-sulfanylideneimidazolidin-1-yl}-2-fluorophenoxy)butoxy]propoxy}acetamido)-3,3-dimethylbutanoyl]-4-hydroxy-N-{[4-(4-methyl-1,3-thiazol-5-yl)phenyl]methyl}pyrrolidine-2-carboxamide]
Dmax (VCaP, highest percentage of Androgen Receptor degradation observed, VCaP cells; read-out: VCaP Dmax (%)): 51 to 70% | DC50 (concentration that caused 50% Androgen Receptor degradation, VCaP cells; read-out: VCaP DC50): < 50 nM

Continued, values first:

DC50 [1]: < 50 nM | Dmax [2]: 51 to 70%
SMILES: CC(C)(C)[C@H](NC(=O)COCCCCNc1ccc(C(=O)N[C@H]2C(C)(C)[C@H](Oc3ccc(C#N)c(Cl)c3)C2(C)C)cc1)C(=O)N1C[C@H](O)C[C@H]1C(=O)NCc1ccc(C#N)cc1 [Example 547]

DC50 [1]: > 501 nM | Dmax [2]: 26 to 50%
SMILES: CNC[C@@H](NC(=O)[C@@H]1C[C@@H](O)CN1C(=O)[C@@H](NC(=O)COCCCCCOc1ccc(C(=O)N[C@H]2C(C)(C)[C@H](Oc3ccc(C#N)c(Cl)c3)C2(C)C)cc1)C(C)(C)C)c1ccc(-c2scnc2C)cc1 [Example 514]

DC50 [4]: < 50 nM | Dmax [5]: > 71%
SMILES: Cc1ncsc1-c1ccc([C@H](C)NC(=O)[C@@H]2C[C@@H](O)CN2C(=O)[C@@H](NC(=O)CN2CCN(CCCc3ccc(C(=O)N[C@H]4C(C)(C)[C@H](Oc5ccc(C#N)c(Cl)c5)C4(C)C)cc3)CC2)C(C)(C)C)cc1 [Example 783, (2S,4R)-1-((S)-2-(2-(4-(3-(4-(((1r,3r)-3-(3-chloro-4-cyanophenoxy)-2,2,4,4-tetramethylcyclobutyl)carbamoyl)phenyl)propyl)piperazin-1-yl)acetamido)-3,3-dimethylbutanoyl)-4-hydroxy-N-((S)-1-(4-(4-methylthiazol-5-yl)phenyl)ethyl)pyrrolidine-2-carboxamide]

DC50 [4]: > 501 nM | Dmax [5]: < 25%
SMILES: CC(C)[C@@H](C(=O)N1C[C@H](O)C[C@H]1C(=O)NCc1ccc(C#N)cc1)N1Cc2ccc(N3CCN(CCCc4ccc(C(=O)N[C@H]5C(C)(C)[C@H](Oc6ccc(C#N)c(C(F)(F)F)c6)C5(C)C)cc4)CC3)cc2C1=O [Example 772, (2S,4R)-1-((S)-2-(6-(4-(3-(4-(((1r,3r)-3-(4-cyano-3-(trifluoromethyl)phenoxy)-2,2,4,4-tetramethylcyclobutyl)carbamoyl)phenyl)propyl)piperazin-1-yl)-1-oxoisoindolin-2-yl)-3-methylbutanoyl)-N-(4-cyanobenzyl)-4-hydroxypyrrolidine-2-carboxamide]

DC50 [1]: < 50 nM | Dmax [2]: > 71%
SMILES: C[C@H](NC(=O)[C@@H]1C[C@@H](O)CN1C(=O)[C@@H](NC(=O)COCCOc1ccc(-c2ccc(C(=O)N[C@H]3C(C)(C)[C@H](Oc4ccc(C#N)c(Cl)c4)C3(C)C)cc2)cc1)C(C)(C)C)c1ccc(C#N)cc1 [Example 549]

DC50 [4]: < 50 nM | Dmax [5]: > 71%
SMILES: Cc1ncsc1-c1ccc([C@H](C)NC(=O)[C@@H]2C[C@@H](O)CN2C(=O)[C@@H](NC(=O)COCCN2CCN(c3ccc(C(=O)N[C@H]4C(C)(C)[C@H](Oc5ccc(C#N)c(Cl)c5)C4(C)C)nc3)CC2)C(C)(C)C)cc1 [Example 654, N-((1r,3r)-3-(3-chloro-4-cyanophenoxy)-2,2,4,4-tetramethylcyclobutyl)-5-(4-(2-(2-(((S)-1-((2S,4R)-4-hydroxy-2-(((S)-1-(4-(4-methylthiazol-5-yl)phenyl)ethyl)carbam-oyl)pyrrolidin-1-yl)-3,3-dimethyl-1-oxobutan-2-yl)amino)-2-oxoethoxy)ethyl)pipera-zin-1-yl)picolinamide]
